Common to all, as to format: in vivo, mouse
The test system of assay [1] is male C57BL/6N mice. Nature of the assay: Forced swimming treatment and amount of spontaneous activity in dark period (fatigue-relieving effects). The settings on record: dark period after 30 minutes of forced swimming; compared with FS-Vehicle group. The method, then: An experiment for determining the fatigue-improving effects (action) was conducted using a forced swimming test for mice and a system for measuring the amount of spontaneous activity. Sixty eight (68) male C57BL/6N mice that had experienced no experiment were bred in an animal room with a constant temperature and humidity for which a 12-12-hour light-dark cycle had been set. Mice were sufficiently acclimatized to breeding environment and then used as subject animals. At the start of the experiment, mice were 10-12-week old and the average body weight was 22.8 g (SD =1.28). The subject animals were divided into seven groups so that the groups were almost the same in terms of average body weights and average ages in weeks. These groups were designated an FS-Akino group (n=11), an FS-Vehicle group (n=10), a noFS-Vehicle group (n=9), an FS-Dia group (n=9), an FS-Caf group (n=9), an FS-Imi group (n=11), and an FS-SSRI group (n=9).
A cylindrical water tank (with the bottom surface having a diameter of 18 cm and a height of 29 cm) placed in an experimental chamber capable of achieving sound proof and light shielding was filled with water at 24±1° C. to a depth of 15 cm. At 7 hours before the start of a dark period, subject mice under FS conditions were subjected to 30 minutes of forced swimming treatment in the tank. Specifically, subject mice were forced to swim under conditions in which they could not escape. Subject mice of the control noFS-Cnt group were left to stand within the same type of empty water tank for 30 minutes.
After 30 minutes of forced swimming treatment, Akino (the water soluble ingredient extracted from Hemerocallis fulva var. sempervirens), diazepam (Dia, 2.5 mg/kg), caffeine (Caf, 15 mg/kg), imipramine (Imi, 30 mg/kg), SSRI (fluvoxamine maleate, 25 mg/kg), or Vehicle (distilled water), which is an ingredient, corresponding to the latter half of each group name, were specifically administered to each subject mouse. Akino and distilled water were orally administered using a stomach tube, and diazepam, caffeine, imipramine, and SSRI were injected intraperitoneally. The dose was always 10 ml of solution per kg mouse body weight.
After administration of these drugs, subject mice were placed in acrylic cages (20 cm long×30 cm wide×12 cm high). The amount of spontaneous activity (in the dark period that began at 6 hours after administration) was continuously measured for 12 hours. The breeding cages used herein were sterilized in advance. All floor mats, feeding stuffs, water supply bottles, and the like used herein were newly prepared. The amount of spontaneous activity was measured using a system for measuring the amount of exercise of experimental animals (Muromachi Kikai Co., Ltd.) using Super Mex Sensor and dedicated software (CompACT AMS ver.3).

Assay [2] has as its system mice. Nature of the assay: Comparison of sedative effects with other test substances (FIG. 3). To be noted: same dose, 0.8 g/kg, p.o.
The subject of assay [3] is mice. As to the kind of experiment: Deep body temperature measurement, comparison with other test substances (FIG. 18). To be noted: same concentration for all test substances.
Assay [4] has as its system male C57BL/6N mice. Nature of the assay: Open space swimming treatment and water maze learning (antidepressant-like effects). The settings on record: phase 2 after open space swimming; 25 mg/kg intraperitoneal. From the text:
Fifty (50) male C57BL/6N mice that had experienced no experiment were bred in an animal room with a constant temperature and humidity for which a 12-12-hour light-dark cycle had been set. Mice were sufficiently acclimatized to breeding environment and then used as subject animals. At the start of the experiment, mice were 10-14-week old and the average body weight was 23.7 g (SD=3.21). The subject animals were divided into four groups each consisting of 12 or 13 mice so that the groups were almost the same average body weights and average ages in weeks. These groups were designated an OS-Akino group, an OS-SSRI group, an OS-Vehicle group, and a noOS-Vehicle group, respectively. An experimental apparatus was a circular pool coated white having a diameter of 110 cm and a height of 40 cm. The pool was filled with water to the depth of 22 cm. Titanium oxide was added to make water cloudy. The water temperature was maintained at 24° C.±1 ° C.
The experiment was composed of two phases. In phase 1, subject mice of the 3 groups under OS conditions were subjected to open space swimming treatment (OS) for 5 straight days. Specifically, subject mice were released into the pool from a wall once a day and then caused to swim for 5 minutes. […] Specifically, 5 times a day, mice were released into the pool and then the time for the mice to reach the escape platform (escape latency) was measured. […]

Counter-ions that a name gives are not always drawn.

Turning to `Cn1c(=O)c2c(ncn2C)n(C)c1=O` [Caf, caffeine], the “amount of spontaneous activity” value in the assay with male C57BL/6N mice [1] is “equivalent to that of the FS-Vehicle group”.
Still for that read-out and setting: the result for `CN1C(=O)CN=C(c2ccccc2)c2cc(Cl)ccc21` [Dia, diazepam] reads “higher than that of the FS-Vehicle group”.
Turning to `NCCCC(=O)O` [GABA, γ-aminobutyric acid], the sedative effects result in the assay on mice [2] is reported as “sedative effects”. In addition, the “rectal temperature (deep body temperature)” value (“rectal temperature” for short) with mice [3] is recorded as “lowered the deep body temperature, but the rate of decrease was lower”.
Take `CN(C)CCCN1c2ccccc2CCc2ccccc21` [Imi, imipramine]: in the assay on male C57BL/6N mice [1], the “amount of spontaneous activity” value is “equivalent to that of the FS-Vehicle group”.
In the case of `COCCCC/C(=N\OCCN)c1ccc(C(F)(F)F)cc1` [SSRI, fluvoxamine maleate], in the assay on male C57BL/6N mice [4], the water maze learning result was “good learning”. In addition, the “amount of spontaneous activity” value with male C57BL/6N mice [1] was “equivalent to that of the FS-Vehicle group”.
On to `NCC(=O)O` [glycine], for which the sedative effects entry in the assay on mice [2] was “sedative effects”. Besides, in the assay with mice [3], the “rectal temperature” value is listed as “lowered the deep body temperature, but the rate of decrease was lower”.
As to `CCNC(=O)CC[C@H](N)C(=O)O` [teanin], the sedative effects result in the assay on mice [2] is “sedative effects”. Also, the “rectal temperature” value with mice [3] was “lowered the deep body temperature, but the rate of decrease was lower”.

For the origin of these results see patent publication US20110076349A1 (priority 2008, published 2011).
